Usually Kd stands for the equilibrium constant for the complex coming apart. Read a low Kd as higher affinity.

The record followed here is ChEMBL document CHEMBL1121730, “beta-Adrenergic blocking agents. alpha- and gamma-methyl(aryloxy)propanolamines” (J Med Chem, 1981).

For this assay, the target named is Adrenergic receptor beta (Rattus norvegicus, UniProt P18090+P10608+P26255). Briefly: Binding affinity against Beta adrenergic receptor in C6-2B astrocytoma cells, using [125I]-iodohydroxybenzylpindolol-benzylpindolol([125I]-HYP). The assay is classed as cell-based.

Molecule `C=CCc1ccccc1OC(C)C(O)CNC(C)(C)C` (stereo not given) returned a dissociation constant Kd of 15 nM.
The molecule `CC(C)NCC(O)C(C)Oc1ccc(Cl)c(Cl)c1` (stereo not given) displayed a Kd of 500 nM.
In turn, `Cc1ccc(OC(C)C(O)CNC(C)C)cc1C` (stereo not given) gave a Kd of 200 nM. Compared with the last molecule, the Kd is about 2.5-fold lower.
The figure for `CCc1ccc(OC(C)C(O)CNC(C)(C)C)cc1` (stereo not given) is 2000 nM; for `Cc1ccc(OC(C)C(O)CNC(C)(C)C)cc1C` (stereo not given) it is 200 nM; for `CCc1ccc(OC(C)C(O)CNC(C)C)cc1` (stereo not given) it is 2000 nM.
With `CC(Oc1cccc2ccccc12)C(O)CNC(C)(C)C` (stereo not given), the Kd was 5 nM.
Consider `CC(Oc1ccccc1)C(O)CNC(C)(C)C` (stereo not given), for which the Kd is 300 nM.
The same measure for `CC(C)NCC(O)C(C)Oc1cccc2ccccc12` (stereo not given): 40 nM; for `C=CCc1ccccc1OC(C)C(O)CNC(C)C` (stereo not given): 50 nM.
